The nature of this data set: Stability test 1, sample preparation 5: survival rate of peptide in Tris buffer (pH 7.0) after storage, HPLC. It counts as physicochemical. The conditions noted are these: 100 μM peptide; for survival rate after correction for water, 40° C. 4 week / survival rate after correction for water, 40° C. 8 week: Tris buffer pH 7.0, 40° C.; for survival rate after correction for water, 40° C. 4 week: 4 weeks (Table 13); for survival rate after correction for water, 40° C. 8 week: 8 weeks (Table 13); for survival rate after correction for water, 60° C. 1 week / survival rate after correction for water, 60° C. 2 week: Tris buffer pH 7.0, 60° C.; for survival rate after correction for water, 60° C. 1 week: 1 week (Table 13); for survival rate after correction for water, 60° C. 2 week: 2 weeks (Table 13). How it is done: The peak area value for the peptide in the chromatogram was calculated, and the survival rate (survival rate before correction for water) was calculated using formula (2). The survival rate after correction for water was also calculated from the survival rate before correction for water using formula (3) to take into account the permeability of the container.
The prepared peptide solutions were incubated for 4 weeks or 8 weeks in a 40° C. thermostatic bath, and for one week or 2 weeks in a thermostatic bath at 60° C., to obtain stored samples.
The following gradient time was used only for peptide 30.

Non-standard residues stand in square brackets, D forms with d. Residues, ends and D or L forms follow the SMILES beside them. Ala(1H-tetrazol-5-yl) = N[C@@H](Cc1nnn[nH]1)C(=O)O

The record followed here is US20250263459A1, “STABILIZED PACAP PEPTIDE” (SENJU PHARMACEUTICAL CO., LTD., priority 2019, published 2025).

Consider `CC[C@H](C)[C@H](NC(=O)CNC(=O)[C@H](Cc1nnn[nH]1)NC(=O)[C@H](C)NC(=O)[C@H](Cc1c[nH]cn1)NC(C)=O)C(=O)N[C@@H](Cc1ccccc1)C(=O)N[C@@H](C)C(=O)N[C@@H](Cc1nnn[nH]1)C(=O)N[C@@H](CO)C(=O)N[C@@H](Cc1ccc(O)cc1)C(=O)N[C@@H](CO)C(=O)N[C@@H](CCCNC(=N)N)C(=O)N[C@@H](Cc1ccc(O)cc1)C(=O)N[C@@H](CCCNC(=N)N)C(=O)N[C@@H](CCCCN)C(=O)N[C@@H](CCC(N)=O)C(=O)N[C@@H](CC(C)C)C(=O)N[C@@H](C)C(=O)N[C@H](C(=O)N[C@@H](CCCCN)C(=O)N[C@@H](CCCCN)C(=O)N[C@@H](Cc1ccc(O)cc1)C(=O)N[C@@H](CC(C)C)C(=O)N[C@@H](C)C(=O)N[C@@H](C)C(=O)N[C@H](C(=O)N[C@@H](CC(C)C)C(N)=O)C(C)C)C(C)C` [Peptide 25, HATzGI FATzSY SRYRK QLAVK KYLAA VL] (Ac-HA[Ala(1H-tetrazol-5-yl)]GIFA[Ala(1H-tetrazol-5-yl)]SYSRYRKQLAVKKYLAAVL-NH2), for which the “survival rate after correction for water, 40° C. 4 week” value (shortened to “survival rate … 40° C. 4 week”) is on record as 91.3%; the “survival rate after correction for water, 40° C. 8 week” value (shortened to “survival rate … 40° C. 8 week”) was determined as 85.1%; the “survival rate after correction for water, 60° C. 1 week” value (shortened to “survival rate … 60° C. 1 week”) is 97.3%; the “survival rate after correction for water, 60° C. 2 week” value (shortened to “survival rate … 60° C. 2 week”) is 93.1%.

Turning to `CC[C@H](C)[C@H](NC(=O)CNC(=O)[C@H](Cc1nnn[nH]1)NC(=O)[C@H](CO)NC(=O)[C@H](Cc1c[nH]cn1)NC(C)=O)C(=O)N[C@@H](Cc1ccccc1)C(=O)N[C@@H](C)C(=O)N[C@@H](Cc1nnn[nH]1)C(=O)N[C@@H](CO)C(=O)N[C@@H](Cc1ccc(O)cc1)C(=O)N[C@@H](CO)C(=O)N[C@@H](CCCNC(=N)N)C(=O)N[C@@H](Cc1ccc(O)cc1)C(=O)N[C@@H](CCCNC(=N)N)C(=O)N[C@@H](CCCCN)C(=O)N[C@@H](CCC(N)=O)C(=O)N[C@@H](CC(C)C)C(=O)N[C@@H](C)C(=O)N[C@H](C(=O)N[C@@H](CCCCN)C(=O)N[C@@H](CCCCN)C(=O)N[C@@H](Cc1ccc(O)cc1)C(=O)N[C@@H](CC(C)C)C(=O)N[C@@H](C)C(=O)N[C@@H](C)C(=O)N[C@H](C(=O)N[C@@H](CC(C)C)C(N)=O)C(C)C)C(C)C` [Peptide 24, HSTzGI FATzSY SRYRK QLAVK KYLAA VL] (Ac-HS[Ala(1H-tetrazol-5-yl)]GIFA[Ala(1H-tetrazol-5-yl)]SYSRYRKQLAVKKYLAAVL-NH2), the “survival rate … 40° C. 4 week” value is reported as 90.5%; the “survival rate … 40° C. 8 week” value is listed as 83.5%; the “survival rate … 60° C. 1 week” value is 99.5%; the “survival rate … 60° C. 2 week” value was determined as 91.1%.

As to `CC(=O)N[C@@H](Cc1c[nH]cn1)C(=O)N[C@@H](CO)C(=O)N[C@@H](Cc1nnn[nH]1)C(=O)NCC(=O)N[C@@H](C)C(=O)N[C@@H](Cc1ccccc1)C(=O)N[C@H](C(=O)N[C@@H](Cc1nnn[nH]1)C(=O)N[C@@H](CO)C(=O)N[C@@H](Cc1ccc(O)cc1)C(=O)N[C@@H](CO)C(=O)N[C@@H](CCCNC(=N)N)C(=O)N[C@@H](Cc1ccc(O)cc1)C(=O)N[C@@H](CCCNC(=N)N)C(=O)N[C@@H](CCCCN)C(=O)N[C@@H](CCC(N)=O)C(=O)N[C@@H](CC(C)C)C(=O)N[C@@H](C)C(=O)N[C@H](C(=O)N[C@@H](CCCCN)C(=O)N[C@@H](CCCCN)C(=O)N[C@@H](Cc1ccc(O)cc1)C(=O)N[C@@H](CC(C)C)C(=O)N[C@@H](C)C(=O)N[C@@H](C)C(=O)N[C@H](C(=O)N[C@@H](CC(C)C)C(N)=O)C(C)C)C(C)C)[C@@H](C)O` [Peptide 23, HSTzGA FTTzSY SRYRK QLAVK KYLAA VL] (Ac-HS[Ala(1H-tetrazol-5-yl)]GAFT[Ala(1H-tetrazol-5-yl)]SYSRYRKQLAVKKYLAAVL-NH2), the “survival rate … 40° C. 4 week” value is 87.7%; the “survival rate … 40° C. 8 week” value is 89.1%; the “survival rate … 60° C. 1 week” value is 96.4%; the “survival rate … 60° C. 2 week” value came to 91.3%.

Regarding `CC[C@H](C)[C@H](NC(=O)CNC(=O)[C@H](Cc1nnn[nH]1)NC(=O)[C@H](CO)NC(=O)[C@H](Cc1c[nH]cn1)NC(C)=O)C(=O)N[C@@H](Cc1ccccc1)C(=O)N[C@@H](C)C(=O)N[C@@H](Cc1nnn[nH]1)C(=O)N[C@@H](CO)C(=O)N[C@@H](Cc1ccc(O)cc1)C(=O)N[C@@H](CO)C(=O)N[C@@H](CCCNC(=N)N)C(=O)N[C@@H](Cc1ccc(O)cc1)C(=O)N[C@@H](CCCNC(=N)N)C(=O)N[C@@H](CCCCN)C(=O)N[C@@H](CCC(N)=O)C(=O)N[C@@H](C)C(=O)N[C@@H](C)C(=O)N[C@H](C(=O)N[C@@H](CCCCN)C(=O)N[C@@H](CCCCN)C(=O)N[C@@H](Cc1ccc(O)cc1)C(=O)N[C@@H](CC(C)C)C(=O)N[C@@H](C)C(=O)N[C@@H](C)C(=O)N[C@H](C(=O)N[C@@H](CC(C)C)C(N)=O)C(C)C)C(C)C` [Peptide 29, HSTzGI FATzSY SRYRK QAAVK KYLAA VL] (Ac-HS[Ala(1H-tetrazol-5-yl)]GIFA[Ala(1H-tetrazol-5-yl)]SYSRYRKQAAVKKYLAAVL-NH2), the “survival rate … 40° C. 4 week” value is listed as 86.1%; the “survival rate … 40° C. 8 week” value worked out at 77.4%; the “survival rate … 60° C. 1 week” value was found to be 96.3%; the “survival rate … 60° C. 2 week” value is 91.9%.

Regarding `CC[C@H](C)[C@H](NC(=O)CNC(=O)[C@H](Cc1nnn[nH]1)NC(=O)[C@H](CO)NC(=O)[C@H](Cc1c[nH]cn1)NC(C)=O)C(=O)N[C@@H](Cc1ccccc1)C(=O)N[C@@H](C)C(=O)N[C@@H](Cc1nnn[nH]1)C(=O)N[C@@H](CO)C(=O)N[C@@H](Cc1ccc(O)cc1)C(=O)N[C@@H](CO)C(=O)N[C@@H](CCCNC(=N)N)C(=O)N[C@@H](Cc1ccc(O)cc1)C(=O)N[C@@H](CCCNC(=N)N)C(=O)N[C@@H](CCCCN)C(=O)N[C@@H](C)C(=O)N[C@@H](CC(C)C)C(=O)N[C@@H](C)C(=O)N[C@H](C(=O)N[C@@H](CCCCN)C(=O)N[C@@H](CCCCN)C(=O)N[C@@H](Cc1ccc(O)cc1)C(=O)N[C@@H](CC(C)C)C(=O)N[C@@H](C)C(=O)N[C@@H](C)C(=O)N[C@H](C(=O)N[C@@H](CC(C)C)C(N)=O)C(C)C)C(C)C` [Peptide 28, HSTzGI FATzSY SRYRK ALAVK KYLAA VL] (Ac-HS[Ala(1H-tetrazol-5-yl)]GIFA[Ala(1H-tetrazol-5-yl)]SYSRYRKALAVKKYLAAVL-NH2), the “survival rate … 40° C. 4 week” value worked out at 94.1%; the “survival rate … 40° C. 8 week” value is recorded as 89.8%; the “survival rate … 60° C. 1 week” value amounted to 98.6%; the “survival rate … 60° C. 2 week” value is 90.9%.

In the case of `CC[C@H](C)[C@H](NC(=O)CNC(=O)[C@H](Cc1nnn[nH]1)NC(=O)[C@H](C)NC(=O)[C@H](Cc1c[nH]cn1)NC(C)=O)C(=O)N[C@@H](Cc1ccccc1)C(=O)N[C@H](C(=O)N[C@@H](Cc1nnn[nH]1)C(=O)N[C@@H](CO)C(=O)N[C@@H](Cc1ccc(O)cc1)C(=O)N[C@@H](CO)C(=O)N[C@@H](CCCNC(=N)N)C(=O)N[C@@H](Cc1ccc(O)cc1)C(=O)N[C@@H](CCCNC(=N)N)C(=O)N[C@@H](CCCCN)C(=O)N[C@@H](C)C(=O)N[C@@H](CC(C)C)C(=O)N[C@@H](C)C(=O)N[C@H](C(=O)N[C@@H](CCCCN)C(=O)N[C@@H](CCCCN)C(=O)N[C@@H](Cc1ccc(O)cc1)C(=O)N[C@@H](CC(C)C)C(=O)N[C@@H](C)C(=O)N[C@@H](C)C(=O)N[C@H](C(=O)N[C@@H](CC(C)C)C(N)=O)C(C)C)C(C)C)[C@@H](C)O` [Peptide 26, HATzGI FITzSY SRYRK ALAVK KYLAA VL] (Ac-HA[Ala(1H-tetrazol-5-yl)]GIFT[Ala(1H-tetrazol-5-yl)]SYSRYRKALAVKKYLAAVL-NH2), the “survival rate … 40° C. 4 week” value turned out to be 93.2%; the “survival rate … 40° C. 8 week” value is given as 89.7%; the “survival rate … 60° C. 1 week” value is on record as 97.9%; the “survival rate … 60° C. 2 week” value is reported as 94.4%.

For `CC[C@H](C)[C@H](NC(=O)CNC(=O)[C@H](Cc1nnn[nH]1)NC(=O)[C@H](C)NC(=O)[C@H](Cc1c[nH]cn1)NC(C)=O)C(=O)N[C@@H](Cc1ccccc1)C(=O)N[C@@H](C)C(=O)N[C@@H](Cc1nnn[nH]1)C(=O)N[C@@H](C)C(=O)N[C@@H](Cc1ccc(O)cc1)C(=O)N[C@@H](CO)C(=O)N[C@@H](CCCNC(=N)N)C(=O)N[C@@H](Cc1ccc(O)cc1)C(=O)N[C@@H](CCCNC(=N)N)C(=O)N[C@@H](CCCCN)C(=O)N[C@@H](C)C(=O)N[C@@H](C)C(=O)N[C@@H](C)C(=O)N[C@H](C(=O)N[C@@H](CCCCN)C(=O)N[C@@H](CCCCN)C(=O)N[C@@H](Cc1ccc(O)cc1)C(=O)N[C@@H](CC(C)C)C(=O)N[C@@H](C)C(=O)N[C@@H](C)C(=O)N[C@H](C(=O)N[C@@H](CC(C)C)C(N)=O)C(C)C)C(C)C` [Peptide 30, HATzGI FATzAY SRYRK AAAVK KYLAA VL] (Ac-HA[Ala(1H-tetrazol-5-yl)]GIFA[Ala(1H-tetrazol-5-yl)]AYSRYRKAAAVKKYLAAVL-NH2), the “survival rate … 40° C. 4 week” value is reported as 91.5%; the “survival rate … 40° C. 8 week” value is 83.4%; the “survival rate … 60° C. 1 week” value was 96.7%; the “survival rate … 60° C. 2 week” value came to 93.7%.
